Consider one compound from article PMC6934184, “Selective DNA-PKcs inhibition extends the therapeutic index of localized radiotherapy and chemotherapy” (The Journal of Clinical Investigation, 2019).

The structures appear in SMILES notation.

The assay deals with T1, RPS6KA5 (MSK1) (Homo sapiens, UniProt O75582).
T1 construct: purchased Thermo Fisher Scientific (Life Technologies) SelectScreen
Description: SelectScreen Z'LYTE. The assay is classed as biochemical. Put shortly: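 Percent values come from Thermo SelectScreen profiling of NU5455, combining activity and binding assays. CSF1R was run in Z'LYTE format at Km app ATP, and CAMK1 in Adapta format with ATP listed at 10.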

T1 sequence (O75582 whole entry): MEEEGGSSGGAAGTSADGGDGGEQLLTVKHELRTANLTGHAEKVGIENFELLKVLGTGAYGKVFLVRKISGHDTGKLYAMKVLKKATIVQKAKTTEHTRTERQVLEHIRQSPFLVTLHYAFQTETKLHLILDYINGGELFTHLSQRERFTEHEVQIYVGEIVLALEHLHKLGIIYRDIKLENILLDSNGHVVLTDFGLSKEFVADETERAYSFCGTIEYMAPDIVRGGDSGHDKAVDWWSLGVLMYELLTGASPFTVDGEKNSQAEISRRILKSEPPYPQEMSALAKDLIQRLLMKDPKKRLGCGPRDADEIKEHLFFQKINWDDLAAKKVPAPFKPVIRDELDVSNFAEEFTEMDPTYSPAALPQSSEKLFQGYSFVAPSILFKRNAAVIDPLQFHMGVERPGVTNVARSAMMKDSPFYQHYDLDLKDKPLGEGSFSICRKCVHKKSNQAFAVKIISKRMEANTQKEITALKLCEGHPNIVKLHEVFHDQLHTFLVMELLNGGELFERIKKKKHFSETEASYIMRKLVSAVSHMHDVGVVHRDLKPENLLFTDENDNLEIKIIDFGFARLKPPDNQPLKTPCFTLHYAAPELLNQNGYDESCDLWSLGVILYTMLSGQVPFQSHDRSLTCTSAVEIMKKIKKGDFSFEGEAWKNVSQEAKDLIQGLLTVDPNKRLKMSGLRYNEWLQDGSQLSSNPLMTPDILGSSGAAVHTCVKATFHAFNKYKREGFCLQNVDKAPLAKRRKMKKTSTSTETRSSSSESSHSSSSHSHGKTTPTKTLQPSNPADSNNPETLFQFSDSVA

In the case of `CN(C(=O)CN1CCOCC1)c1ccc2sc3c(-c4cccc5c(=O)cc(N6CC7CCC(C6)O7)oc45)cccc3c2c1` [NU5455], the inhibition (usually the drop in the measured response relative to a control, in per cent) at 1 µM amounted to 7.4%.
